# Source: patent US11643438B2, “Antimicrobial peptides and methods of use” (priority 2018, dated 2023)
# Entries after “also recorded” stand apart in the source; their conditions may differ. Where two headings read alike, the source gives them in different places. *1 amine or outer side, *2 acyl side, *3 side chain or, on linkers, in order; H or OH if unused. Where a SMILES comes first, the peptide text is derived from it. [ ]: non-standard residue; d: D form. X2 = CC[C@H](C)C[C@H](C)C[C@H](C)C[C@H](N[*:1])C(=O)[*:2]; X1 = CC[C@@H](C)[C@@H](O[*:1])C(=O)[*:2]; NMeVal(β-OH) = CN[C@H](C(=O)O)C(C)(C)O; aIle = CC[C@@H](C)[C@H](N)C(=O)O; NMeV = CN[C@H](C(=O)O)C(C)C; Sar = CNCC(=O)O
# Columns and labels:
# [1] = test system: Nodulosporium spp.; assay: MIC/MFC against phytopathogenic (endophytic) fungi
# [2] = test system: Fusarium tricinctum; assay: MIC/MFC against phytopathogenic (endophytic) fungi
# [3] = test system: Candida albicans SC5314; assay: Ex vivo model of fungal keratitis (porcine cornea)
# [4] = test system: Alternaria brassicae; assay: MIC/MFC against phytopathogenic (endophytic) fungi
# [5] = test system: Alternaria tennuissiema; assay: MIC/MFC against phytopathogenic (endophytic) fungi
# [6] = test system: Alternaria brassicicola; assay: MIC/MFC against phytopathogenic (endophytic) fungi
# [7] = Mammalian cell cytotoxicity assay (calcein/Hoechst); format: cell-based; details: human, read-out: LC50
# Protocol: Cell cytotoxicity was tested against the human liver cancer cell line HepG2 and the HPV-immortalized ectocervical epithelium cell line Ect1/E6E7. The HepG2 cells were cultured in the EMEM medium supplemented with 5% FetalClone III and penicillin/streptomycin (5 Units/mL, 50 ug/mL). The Ect1/E6E7 cells were grown in the RPMI 1640 medium supplemented with 5% FetalClone III, EGF (10 ng/mL Novoprotein #C029), and penicillin/streptomycin (5 Units/mL, 50 ug/mL). For the assays, 5,000 HepG2 or Ect1/E6E7 cells were seeded into each well of a 96-well plate and allowed to attach overnight in a 37° C. humidified incubator. The next day, test compounds were diluted in DMSO, added to the wells at a final DMSO concentration of 0.5% and cells were incubated for an additional 48 hours. Cell viability was determined by the Calcein and Hoechst Assay on the Perkin Elmer Operetta. In each assay, 5 μL of the fluorescent dyes (40 μM calcein AM and 160 μM Hoechst 33342 in DMSO) and 25 μL PBS were added into each well. Plates were incubated for 30 minutes and then analyzed on the Operetta. The Harmony software was used to calculate the whole-cell area by finding all the Hoechst-labeled nuclei. The live and dead cells were assessed based on a threshold of the green calcein fluorescence. […]
# [8] = test system: P. glomerata; assay: MIC/MFC against phytopathogenic (endophytic) fungi
# [9] = test system: C. albicans SC5314 Flu^R; assay: Ex vivo model of fungal keratitis (porcine cornea); set-up: species or system Candida albicans
# [10] = test system: Fusarium oxysporum; assay: MIC/MFC against phytopathogenic (endophytic) fungi
# [11] = test system: Mycosphaerella populorum; assay: MIC/MFC against phytopathogenic (endophytic) fungi; details: Sphaerulina musiva
structure (smiles),measurement,setting,value
"CC[C@H](C)C[C@H](C)C[C@H](C)C[C@@H]1NC(=O)[C@H](C(C)C)N(C)C(=O)[C@@H]([C@H](C)CC)OC(=O)[C@H](C(C)(C)O)N(C)C(=O)[C@H](CC(C)C)NC(=O)[C@H](C(C)C)N(C)C(=O)[C@H]([C@H](C)CC)NC(=O)[C@@H]2CCCN2C(=O)CN(C)C1=O [Compound 1, persephacin] (cyclo(L[NMeVal(β-OH)][X1][NMeV][X2][Sar]P[aIle][NMeV]))",MFC,[1],> 20 µM
same,MIC,[1],> 20 µM
same,MFC,"[1]; Nodulosporium spp., […]",neither compound showed MIC or MFC activity
same,MIC,"[1]; Nodulosporium spp., […]",neither compound showed MIC or MFC activity
same,MFC,[2],10 µM
same,MIC,[2],5 µM
same,"antifungal activity (fungal growth/infection), in words","[3]; 0.1% 118A, 2% fluconazole, 5% natamycin, FIG. 11",inhibited the growth; also recorded: eliminated the fungus
same,effect of different doses on fungal growth,"[3]; 50-1,000 μg/mL, FIG. 8",effective at reducing or eliminating the fungus
same,CFU,"[3]; 118A 0.1% (1 mg/ml), natamycin 5% (50 mg/ml), fluconazole 2% (20 mg/ml)",0 CFU
same,MFC,[4],2.5 µM
same,MIC,[4],1.25 µM
same,MFC,[5],10 µM
same,MIC,[5],10 µM
same,MFC,[6],20 µM
same,MIC,[6],5 µM
same,CC50 at 48 h,"[7]; Ect1/E6E7 cells (HPV-immortalized ectocervical epithelium), Ect1/E6E7 cell line",30 µM
same,CC50 at 48 h,"[7]; HepG2 cells, HepG2 cell line",30 µM
same,MFC,[8],1.25 µM
same,MIC,[8],0.625 µM
same,MIC,"[8]; P. glomerata, […], listed as Persephacin A",.625 µM
same,CFU,"[9]; C. albicans SC5314 Flu^R, 118A 0.1% (1 mg/ml), natamycin 5% (50 mg/ml), fluconazole 2% (20 mg/ml)",0 CFU
same,effect of different doses on fungal growth,"[9]; Candida albicans SC5314FluR, 50-1,000 μg/mL, FIG. 9",effective at reducing or eliminating the fungus
same,MFC,[10],20 µM
same,MIC,[10],5 µM
same,MFC,[11],10 µM
same,MIC,[11],2.5 µM
